Results reported in patent US20240132484A1, “BROAD SPECTRUM ANTIVIRAL COMPOUNDS TARGETING THE SKI COMPLEX” (priority 2020, published 2024).
Values joined by “and” are separate entries in the source; they are usually repeats but may differ in a detail not shown here. Identical values can stand only once. Like-named read-outs stand apart in the source and are kept apart here.

Tests used:
[1] = test system: SARS2; type: cell-based, SARS-CoV-2; details: for Infection Data, Average, Mean percentage infection relative to DMSO control: Average of Exp 1 (SMW491) and Exp 2 (SMW492); for Infection Data, Percentage Infection Relative to Appropriate DMSO Control: single well, avg background subtraction; for Percentage Inhibition Average 1 μM / Screening data (Relative infection to DMSO controls) Average 1 μM: SARS2, 1 μM; for Screening data (Relative infection to DMSO controls) Average 1 μM / Screening data (Relative infection to DMSO controls) Average 5 μM / Screening data (Relative infection to DMSO controls) Average 10 μM / Screening data (Relative infection to DMSO controls) Average 25 μM / Screening data (Relative infection to DMSO controls) Average 50 μM / Average (relative infection to DMSO over the 5 tested concentrations): 100=DMSO control; for Percentage Inhibition Average 5 μM / Screening data (Relative infection to DMSO controls) Average 5 μM: SARS2, 5 μM; for Percentage Inhibition Average 10 μM / Screening data (Relative infection to DMSO controls) Average 10 μM: SARS2, 10 μM; for Percentage Inhibition Average 25 μM / Screening data (Relative infection to DMSO controls) Average 25 μM: SARS2, 25 μM; for Percentage Inhibition Average 50 μM / Screening data (Relative infection to DMSO controls) Average 50 μM: SARS2, 50 μM; for Average (relative infection to DMSO over the 5 tested concentrations): SARS2, average over 1 to 50 uM
[2] = test system: cells (nuclei count); details: for Relative cell count to DMSO controls, Average 1 μM / Relative cell count to DMSO controls, Average 5 μM / Relative cell count to DMSO controls, Average 10 μM / Relative cell count to DMSO controls, Average 25 μM / Relative cell count to DMSO controls, Average 50 μM: toxicity data, 100=DMSO control; for Toxicity Data, Average, Mean percentage relative to DMSO control: Average of Exp 1 (SMW491) and Exp 2 (SMW492); for Toxicity Data, Percentage Relative to Appropriate DMSO Control: single well; for Relative cell count to DMSO controls, Average (for correlation analysis): average value over the 5 tested concentrations (1 to 50 uM)

COc1ccc(C2NC(=O)NC(C)=C2C(=O)NCc2ccccc2)cc1OC (stereo not drawn) [SILCS48]
Infection Data, Average, Mean percentage infection relative to DMSO control ([1]; n=4, 1 uM): 71.69% | Infection Data, Average, Mean percentage infection relative to DMSO control ([1]; n=4, 5 uM): 75.19% | Infection Data, Average, Mean percentage infection relative to DMSO control ([1]; n=4, 10 uM): 85.09% | Infection Data, Average, Mean percentage infection relative to DMSO control ([1]; n=4, 25 uM): 100.34% | Infection Data, Average, Mean percentage infection relative to DMSO control ([1]; n=4, 50 uM): 160.04% | Infection Data, Percentage Infection Relative to Appropriate DMSO Control ([1]; Exp 1 (SMW491), 1 uM): 87.03% and 82.70% | Infection Data, Percentage Infection Relative to Appropriate DMSO Control ([1]; Exp 1 (SMW491), 5 uM): 70.35% and 83.94% | Infection Data, Percentage Infection Relative to Appropriate DMSO Control ([1]; Exp 1 (SMW491), 10 uM): 96.64% and 110.53% | Infection Data, Percentage Infection Relative to Appropriate DMSO Control ([1]; Exp 1 (SMW491), 25 uM): 102.87% and 119.89% | Infection Data, Percentage Infection Relative to Appropriate DMSO Control ([1]; Exp 1 (SMW491), 50 uM): 159.63% and 145.37% | Infection Data, Percentage Infection Relative to Appropriate DMSO Control ([1]; Exp 2 (SMW492), 1 uM): 59.24% and 57.80% | Infection Data, Percentage Infection Relative to Appropriate DMSO Control ([1]; Exp 2 (SMW492), 5 uM): 84.51% and 61.96% | Infection Data, Percentage Infection Relative to Appropriate DMSO Control ([1]; Exp 2 (SMW492), 10 uM): 49.42% and 83.79% | Infection Data, Percentage Infection Relative to Appropriate DMSO Control ([1]; Exp 2 (SMW492), 25 uM): 97.57% and 81.03% | Infection Data, Percentage Infection Relative to Appropriate DMSO Control ([1]; Exp 2 (SMW492), 50 uM): 177.82% and 157.32% | Percentage Inhibition Average 1 μM [1]: 28.31% | Screening data (Relative infection to DMSO controls) Average 1 μM [1]: 71.69 | Percentage Inhibition Average 5 μM [1]: 24.81% | Screening data (Relative infection to DMSO controls) Average 5 μM [1]: 75.19 | Percentage Inhibition Average 10 μM [1]: 14.91% | Screening data (Relative infection to DMSO controls) Average 10 μM [1]: 85.09 | Percentage Inhibition Average 25 μM [1]: −0.34% | Screening data (Relative infection to DMSO controls) Average 25 μM [1]: 100.34 | Percentage Inhibition Average 50 μM [1]: −60.04% | Screening data (Relative infection to DMSO controls) Average 50 μM [1]: 160.04 | Average (relative infection to DMSO over the 5 tested concentrations) [1]: 98.47 | Relative cell count to DMSO controls, Average 1 μM [2]: 119.19 | Relative cell count to DMSO controls, Average 5 μM [2]: 115.84 | Relative cell count to DMSO controls, Average 10 μM [2]: 107.43 | Relative cell count to DMSO controls, Average 25 μM [2]: 102.04 | Relative cell count to DMSO controls, Average 50 μM [2]: 77.81 | Toxicity Data, Average, Mean percentage relative to DMSO control ([2]; n=4, 1 uM): 119.19% | Toxicity Data, Average, Mean percentage relative to DMSO control ([2]; n=4, 5 uM): 115.84% | Toxicity Data, Average, Mean percentage relative to DMSO control ([2]; n=4, 10 uM): 107.43% | Toxicity Data, Average, Mean percentage relative to DMSO control ([2]; n=4, 25 uM): 102.04% | Toxicity Data, Average, Mean percentage relative to DMSO control ([2]; n=4, 50 uM): 77.81% | Toxicity Data, Percentage Relative to Appropriate DMSO Control ([2]; Exp 1 (SMW491), 1 uM): 112% and 102% | Toxicity Data, Percentage Relative to Appropriate DMSO Control ([2]; Exp 1 (SMW491), 5 uM): 108% and 106% | Toxicity Data, Percentage Relative to Appropriate DMSO Control ([2]; Exp 1 (SMW491), 10 uM): 86% and 88% | Toxicity Data, Percentage Relative to Appropriate DMSO Control ([2]; Exp 1 (SMW491), 25 uM): 95% and 88% | Toxicity Data, Percentage Relative to Appropriate DMSO Control ([2]; Exp 1 (SMW491), 50 uM): 79% and 77% | Toxicity Data, Percentage Relative to Appropriate DMSO Control ([2]; Exp 2 (SMW492), 1 uM): 130% and 132% | Toxicity Data, Percentage Relative to Appropriate DMSO Control ([2]; Exp 2 (SMW492), 5 uM): 115% and 135% | Toxicity Data, Percentage Relative to Appropriate DMSO Control ([2]; Exp 2 (SMW492), 10 uM): 135% and 121% | Toxicity Data, Percentage Relative to Appropriate DMSO Control ([2]; Exp 2 (SMW492), 25 uM): 109% and 116% | Toxicity Data, Percentage Relative to Appropriate DMSO Control ([2]; Exp 2 (SMW492), 50 uM): 81% and 75% | Relative cell count to DMSO controls, Average (for correlation analysis) [2]: 104.46

CN(C)CCN(Cc1ccccc1)Cc1cc(C#CCO)cs1 [SILCS5]
Percentage Infection Relative to DMSO Control, Average, Mean [1]: 75.63% and 81.28% and 98.58% and 104.84% and 111.97% | Percentage Inhibition Average 1 μM [1]: −11.97% | Screening data (Relative infection to DMSO controls) Average 1 μM [1]: 111.97 | Percentage Inhibition Average 5 μM [1]: −4.84% | Screening data (Relative infection to DMSO controls) Average 5 μM [1]: 104.84 | Percentage Inhibition Average 10 μM [1]: 1.42% | Screening data (Relative infection to DMSO controls) Average 10 μM [1]: 98.58 | Percentage Inhibition Average 25 μM [1]: 18.72% | Screening data (Relative infection to DMSO controls) Average 25 μM [1]: 81.28 | Percentage Inhibition Average 50 μM [1]: 24.37% | Screening data (Relative infection to DMSO controls) Average 50 μM [1]: 75.63 | Average (relative infection to DMSO over the 5 tested concentrations) [1]: 94.46 | Relative cell count to DMSO controls, Average 1 μM [2]: 113.75 | Relative cell count to DMSO controls, Average 5 μM [2]: 108.79 | Relative cell count to DMSO controls, Average 10 μM [2]: 102.76 | Relative cell count to DMSO controls, Average 25 μM [2]: 105.3 | Relative cell count to DMSO controls, Average 50 μM [2]: 75.59 | Toxicity Data, Average, Mean (relative to DMSO control) ([2]; Average of Exp 1-3, 1 uM): 113.75% | Toxicity Data, Average, Mean (relative to DMSO control) ([2]; Average of Exp 1-3, 5 uM): 108.79% | Toxicity Data, Average, Mean (relative to DMSO control) ([2]; Average of Exp 1-3, 10 uM): 102.76% | Toxicity Data, Average, Mean (relative to DMSO control) ([2]; Average of Exp 1-3, 25 uM): 105.30% | Toxicity Data, Average, Mean (relative to DMSO control) ([2]; Average of Exp 1-3, 50 uM): 75.59% | Relative cell count to DMSO controls, Average (for correlation analysis) [2]: 101.24

COc1ccc(C2NC(=O)NC(C)=C2C(=O)NC2CCCCCC2)cc1OC (stereo not drawn) [SILCS59]
Percentage Inhibition Average 1 μM [1]: 29.42% | Screening data (Relative infection to DMSO controls) Average 1 μM [1]: 70.58 | Percentage Inhibition Average 5 μM [1]: 33.20% | Screening data (Relative infection to DMSO controls) Average 5 μM [1]: 66.80 | Percentage Inhibition Average 10 μM [1]: 16.88% | Screening data (Relative infection to DMSO controls) Average 10 μM [1]: 83.12 | Percentage Inhibition Average 25 μM [1]: −8.59% | Screening data (Relative infection to DMSO controls) Average 25 μM [1]: 108.59 | Percentage Inhibition Average 50 μM [1]: −28.37% | Screening data (Relative infection to DMSO controls) Average 50 μM [1]: 128.37 | Average (relative infection to DMSO over the 5 tested concentrations) [1]: 91.49 | Relative cell count to DMSO controls, Average 1 μM [2]: 115.37 | Relative cell count to DMSO controls, Average 5 μM [2]: 119.78 | Relative cell count to DMSO controls, Average 10 μM [2]: 116.3 | Relative cell count to DMSO controls, Average 25 μM [2]: 100.03 | Relative cell count to DMSO controls, Average 50 μM [2]: 86.44 | Relative cell count to DMSO controls, Average (for correlation analysis) [2]: 107.58
